From PMC3557602 (Analytical biochemistry, 2012)
Entries after “also recorded” stand apart in the source; their conditions may differ. Structures can show the parent of a compound that is named as a salt.

Assays:
[1] = target: T1, Nterm-phos activity of human sEH (Homo sapiens, UniProt P34913); experiment: AttoPhos fluorescent endpoint HTS assay for sEH phosphatase activity; format: biochemical; conditions: for Nominal Inhibition (%): [E] 2.1 nM, AttoPhos 25 μM, 60 min, 96-well; for inhibition of Nterm-phos in library screen: pesticide library; for inhibition at 10 µM: read-out: inhibition of Nterm-phos in library screen
T1 sequence (P34913 1-555): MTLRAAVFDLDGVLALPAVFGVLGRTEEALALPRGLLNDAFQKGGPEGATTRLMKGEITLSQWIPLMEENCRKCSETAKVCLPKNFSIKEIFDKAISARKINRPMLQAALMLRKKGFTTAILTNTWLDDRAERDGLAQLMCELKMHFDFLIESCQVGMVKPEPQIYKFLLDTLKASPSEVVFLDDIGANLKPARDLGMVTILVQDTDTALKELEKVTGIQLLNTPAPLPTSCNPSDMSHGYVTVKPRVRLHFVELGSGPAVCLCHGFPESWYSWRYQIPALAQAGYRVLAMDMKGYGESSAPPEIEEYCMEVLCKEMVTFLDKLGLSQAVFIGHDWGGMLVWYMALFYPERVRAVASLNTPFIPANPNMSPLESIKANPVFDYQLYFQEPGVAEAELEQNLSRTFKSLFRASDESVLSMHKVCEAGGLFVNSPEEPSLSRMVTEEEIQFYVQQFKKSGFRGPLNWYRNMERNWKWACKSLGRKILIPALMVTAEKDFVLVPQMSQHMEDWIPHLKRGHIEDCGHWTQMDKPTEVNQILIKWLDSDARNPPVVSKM

[2] = target: T1, Nterm-phos activity of human sEH; experiment: AttoPhos assay in kinetic mode; format: biochemical
[3] = target: T2, Cterm-EH activity of human sEH (Homo sapiens, UniProt P34913); experiment: Kinetic constants with a model of irreversible inhibition, PHOME 50 μM; format: biochemical; conditions: n = 3
T2 sequence (P34913 1-555): T1 sequence (P34913 1-555)

[4] = tested on: a series of esterases and amidases; experiment: Selectivity: esterases and amidases inhibition; format: biochemical
[5] = target: T1, Nterm-phos activity of human sEH; experiment: Reversibility; format: biochemical
[6] = target: T2, Cterm-EH activity of human sEH; experiment: Reversibility; format: biochemical
[7] = target: T3, Cterm-EH expressed alone (Homo sapiens, UniProt P34913); experiment: Inhibition of the C-terminal domain expressed separately; format: biochemical; conditions: 10 μM for 5 min
T3 sequence (P34913 235-555 limits assumed): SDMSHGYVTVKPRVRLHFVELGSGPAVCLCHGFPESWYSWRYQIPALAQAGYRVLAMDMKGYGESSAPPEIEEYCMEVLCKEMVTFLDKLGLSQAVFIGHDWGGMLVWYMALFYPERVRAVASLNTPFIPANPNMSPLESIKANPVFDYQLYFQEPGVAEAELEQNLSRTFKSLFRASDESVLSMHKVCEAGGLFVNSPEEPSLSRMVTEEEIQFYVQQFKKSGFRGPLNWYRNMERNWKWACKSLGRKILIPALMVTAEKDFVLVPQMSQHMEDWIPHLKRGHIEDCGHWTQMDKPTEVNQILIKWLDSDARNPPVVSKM

[8] = target: T4, Nterm-phos expressed alone (Homo sapiens, UniProt P34913); experiment: Inhibition of the N-terminal domain expressed separately; format: biochemical; conditions: 10 μM for 5 min
T4 sequence (P34913 1-224 limits assumed): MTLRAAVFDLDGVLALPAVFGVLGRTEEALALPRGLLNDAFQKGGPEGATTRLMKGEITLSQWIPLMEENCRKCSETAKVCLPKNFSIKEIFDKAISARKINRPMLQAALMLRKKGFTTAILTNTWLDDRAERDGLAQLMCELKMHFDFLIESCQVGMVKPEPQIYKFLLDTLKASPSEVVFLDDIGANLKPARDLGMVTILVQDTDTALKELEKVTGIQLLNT

[9] = tested on: human alkaline phosphatase; experiment: Selectivity: alkaline phosphatase inhibition; format: biochemical
[10] = target: T2, Cterm-EH activity of human sEH; experiment: Inhibition of sEH epoxide hydrolase activity; format: biochemical; conditions: for IC50: IC50 for Cterm-EH
[11] = target: T1, Nterm-phos activity of human sEH; experiment: Kinetic constants with a model of irreversible inhibition, AttoPhos 25 μM; format: biochemical
[12] = target: T5, human microsomal EH (Homo sapiens, UniProt P07099); experiment: Selectivity: microsomal EH inhibition; format: biochemical
T5 sequence (P07099 1-455): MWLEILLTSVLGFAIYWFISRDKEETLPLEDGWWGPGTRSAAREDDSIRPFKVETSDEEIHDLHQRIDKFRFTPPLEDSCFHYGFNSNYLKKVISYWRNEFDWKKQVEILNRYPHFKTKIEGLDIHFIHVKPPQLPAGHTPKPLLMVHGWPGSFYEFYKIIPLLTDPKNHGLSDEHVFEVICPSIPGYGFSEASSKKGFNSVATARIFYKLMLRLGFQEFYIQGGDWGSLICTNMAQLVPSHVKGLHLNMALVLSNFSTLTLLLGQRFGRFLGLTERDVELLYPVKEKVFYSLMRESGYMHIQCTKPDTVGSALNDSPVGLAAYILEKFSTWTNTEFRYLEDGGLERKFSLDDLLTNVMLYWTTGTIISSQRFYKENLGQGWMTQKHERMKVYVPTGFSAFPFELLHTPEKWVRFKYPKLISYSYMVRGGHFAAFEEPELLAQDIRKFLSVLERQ

[13] = cited from earlier work
[14] = read-out: IC50 (nominal inhibition column), nominal / overall value
[15] = read-out: IC50 Day 1, Day 1, 3 plates
[16] = read-out: IC50 Day 2, Day 2, 3 plates
[17] = read-out: IC50 Day 3, Day 3, 3 plates
[18] = 20 nM human sEH with 10 μM for 15 min, then dialysis
[19] = 5 mM glutathione before 10 μM for 5 min

## CCCCCCCCCCCCS(=O)(=O)O [C00002, dodecyl sulfonate]
[1]; [I] 1.6 μM
  Nominal Inhibition (%): 9 ± 6%
[1]; [I] 3.1 μM
  Nominal Inhibition (%): 26 ± 4%
[1]; [I] 6.3 μM
  Nominal Inhibition (%): 54 ± 4%
[1]; [I] 12.5 μM
  Nominal Inhibition (%): 78 ± 3%
[1]; [I] 25 μM
  Nominal Inhibition (%): 89 ± 1%
[1]; [14]
  IC50: 6.6 ± 0.8 µM
[1]; [15]
  IC50: 6.3 ± 0.3 µM
[1]; [16]
  IC50: 6.1 ± 0.3 µM
[1]; [17]
  IC50: 7.5 ± 1.2 µM

## CCCCCCCCCCCCOP(=O)(O)O [C00003, dodecyl phosphoric acid]
[1]; 1 μM
  inhibition of Nterm-phos in library screen: more than 50%
[1]; 10 μM
  inhibition of Nterm-phos in library screen: more than 50%
[1]; [I] 0.8 μM
  Nominal Inhibition (%): 19 ± 4%
[1]; [I] 1.6 μM
  Nominal Inhibition (%): 39 ± 5%
[1]; [I] 3.1 μM
  Nominal Inhibition (%): 70 ± 3%
[1]; [I] 6.3 μM
  Nominal Inhibition (%): 91 ± 1%
[1]; [I] 12.5 μM
  Nominal Inhibition (%): 98 ± 1%
[1]; [14]
  IC50: 2.2 ± 0.3 µM
[1]; [15]
  IC50: 1.8 ± 0.2 µM
[1]; [16]
  IC50: 2.3 ± 0.2 µM
[1]; [17]
  IC50: 2.4 ± 0.1 µM

## O=C1c2ccccc2C(=O)N1SC(Cl)(Cl)Cl [Folpet]
[2]
  IC50: 25 ± 3 µM
[1]
  inhibition at 10 µM: > 50%

## S=C(S)NCCNC(=S)S [Nabam]
[2]
  IC50: > 100 µM
[1]
  inhibition at 10 µM: > 50%

## O=c1c2ccccc2[se]n1-c1ccccc1 [ebselen]
[3]
  first-order formation rate of the covalent enzyme-inhibitor complex (ki), Cterm-EH: 0.39 ± 0.07 min⁻¹
[4]
  inhibition of esterases and amidases: not the other enzymes tested
[5]
  time to stable inhibition of Nterm-phos: less than a minute
[5]; [18]
  recovery of Nterm-phos activity after dialysis: not able to recover any
[5]; [19]
  effect of glutathione pretreatment on Nterm-phos activity: protected
[2]
  IC50: 0.4 ± 0.02 µM
[6]; [18]
  recovery of Cterm EH activity after dialysis: not able to recover any
[6]; [19]
  effect of glutathione pretreatment on Cterm-EH activity: protected
[6]; glutathione added 5 min after exposure
  Cterm-EH activity recovered on glutathione added after exposure: 30%
[7]
  inhibition of Cterm-EH expressed alone: did not significantly inhibit
[8]
  inhibition of Nterm-phos expressed alone: totally inhibited
[9]
  inhibition of human alkaline phosphatase: did not inhibit; also recorded: not the other enzymes tested
[10]
  IC50 ratio Cterm-EH over Nterm-phos: 5 fold
[10]; incubation time 1 min
  IC50: 2 ± 0.3 µM
[10]; incubation time 15 min
  IC50: 0.85 ± 0.05 µM
[11]
  Ki: 0.55 µM
  ratio of ki, Nterm-phos over Cterm-EH: around 7 fold
[11]; n = 3
  first-order formation rate of the covalent enzyme-inhibitor complex (ki), Nterm-phos: 2.58 ± 0.05 min⁻¹
[12]
  inhibition of human microsomal EH: not the other enzymes tested

## CC(=O)N1CCN(c2ccc(OCC3COC(Cn4ccnc4)(c4ccc(Cl)cc4Cl)O3)cc2)CC1 (stereo not shown) [ketoconazole]
[2]
  IC50: > 100 µM

## O=C(O)c1ccccc1C(=O)Nc1ccc(S(=O)(=O)Nc2nccs2)cc1 [phthalyl-sulfathiazole]
[2]
  IC50: > 100 µM

## CCCCC(CC)CCC(CC(C)C)OS(=O)(=O)O (stereo not shown) [sodium tetradecyl sulfate]
[13]
  critical micelle concentration: around 2 mM
